From patent publication US20050130949A1, “Cyclic polyamine compounds for cancer therapy” (priority 2000, published 2005) come the findings set out here.

One series concerns DuPro. Put plainly: MTT assay, cell growth inhibition, DuPro. Format: cell-based. To be noted: Homo sapiens, 144 h, 6 days with drug, read-out: ID50 DuPro. The source says: (§1) To assess the utility of the subject compounds in the treatment of neoplastic cell growth, the ability of the compounds to inhibit the in vitro growth characteristics of several commonly used cancer models were studied. The subject polyamines induce cell growth inhibitions in several cultured human prostate tumor cell lines such as LnCap, DuPro, and PC-3 as determined by the accepted MTT assay (Table 2) (Hansen, M. B. et al., “Re-examination and further development of a precise and rapid dye method for measuring cell growth/cell kill,” J. Immunol. Methods (1989)119(2):203-10). […] The results with the DuPro cell line are representative of the results with human prostate cell lines.
(§2) For the data shown in Table 2, an accepted MTT assay protocol was used. A trypsinized cell suspension was diluted to seed 80 μl suspension containing 500 cells in each well of a 96 well microtiter plates and incubated overnight at 37° C. in a humidified incubator in 5% CO2. Twenty μl of appropriately diluted stock solution of each drug was added to the middle 8 columns of cell suspension in the microtiter plates. Each drug concentration was run in quadruplicate. Outer columns of the plates were used for buffer controls. Cells were incubated with the drug for 6 days at 37° C. in 5% CO2/H2O atmosphere. Twenty five μl of 5 mg/ml solution of 3-(4,5-dimethythiazol-2-yl)-2,5-diphenyl tetrazolium bromide (MTT) was added to each well and incubated for 4 hours at 37° C. in 5% CO2/H2O incubator. Cells were lysed by incubating overnight with 100 μl lysis buffer (500 ml of the lysis buffer containing: 100 g lauryl sulfate (SDS), 250 ml of N,N-dimethyl formamide in 2 ml of glacial acetic acid, pH 4.8). The color was monitored at room temperature at 570 nm in a E-max Precision Microplate Reader (Molecular Devices Corporation, Sunnyvale, Calif.) and data were analyzed using cell survival software supplied by Molecular Devices Corporation.
(Formazan colour is commonly taken as a measure of viable cells.)

The test system of another series is LnCap. Put plainly: MTT assay, cell growth inhibition, LnCap. Format: cell-based. To be noted: Homo sapiens, 144 h, 6 days with drug, read-out: ID50 LnCap.
From the text: as §1, §2

For a further series, the system named is PC-3. Put plainly: MTT assay, cell growth inhibition, PC-3. Format: cell-based. To be noted: Homo sapiens, PC-3, 144 h, 6 days with drug, read-out: ID50 PC-3.
From the text: as §1, §2

The next series deals with DuPro cells. Put plainly: Intracellular polyamine and analog levels by HPLC of dansylated extracts. Format: cell-based, human. How it is done: For data shown in Tables 3a and 3b, intracellular polyamine levels were determined using a standard protocol. About 0.5-1×10^6 cells were taken from harvested samples and centrifuged at 1000 rpm at 4° C. for 5 min. The cells were washed twice with chilled Dulbecco's isotonic phosphate buffer (pH 7.4) by centrifugation at 1000 rpm at 4° C. and resuspended in the same buffer. After the final centrifugation, the supernatant was decanted, and 250 μl of 8% sulfosalycilic acid was added to the cell pellet. The cells were then sonicated, and the mixture was kept at 4° C. for at least 1 h. After centrifugation at 8,000 g for 5 min, the supernatant was removed for analysis. An appropriate volume (50-100 μl) was fluorescence-labeled by derivatizing with dansyl chloride. Labeled polyamines were loaded onto a C-18 high-performance liquid chromatography column and separated by gradient elution with acetonitrile/water at 50° C. Peaks were detected and quantitated using a Shimadzu HPLC fluorescence monitor coupled with a Spectra-Physics peak integrator. Because polyamine levels vary with environmental conditions, control cultures were sampled for each experiment.

The conditions of series [1]: inorganic phosphate released from 100 μM ATP in 24 hour, 37° C.
Protocol: In a 96 well microtiter plate, the first two columns were routinely used for standard curve generation. For the standard curve, 40 μl of 0-70 μM phosphate buffer was used by serially diluting 1 mM NaH2PO4 solution in 1 N HCl. For ATP hydrolysis, the rest of the microtiter plate was equally divided into two sections to run two analogs at a time. Each section was divided into the appropriate number of columns to serially dilute each analog between 0-10 mM in 29 μl 2N HCl for the final concentration of 2 N HCl. Each drug concentration was run in quadruplicate. Equal volumes of 500 μM ATP solution (pH 7.5) were added to each well and the plates were incubated at 37° C. for appropriate lengths of time between 2-24 h. At the end of the incubation period, 160 μl of coloring agent (0.045% Malachite Green in water and 4.2% ammonium molybdate in 4 N HCl (3:1 v/v)) was added and the plates were incubated at 37° C. for another 30 mins. All plates were read at 595 nm using a Emax precision microplate reader (Molecular Device, San Jose, Calif.). A control plate containing analog solutions without ATP was created for each experiment. Control plate reading was subtracted from each experimental plate and all data was normalized to ATP hydrolysis at zero concentration of polyamine analog. The average and standard deviation for quadruplicate runs were plotted.
Setting [2] is: 1 μM analog, Day 4 of Treatment.
Where [3] appears, read: 1 μM analog, Day 6 of Treatment.
Where [4] appears, read: 2 μM analog, Day 4 of Treatment.
[5] abbreviates: 2 μM analog, Day 6 of Treatment.
[6] abbreviates: 0.5 μM analog, Day 4 of Treatment.
[7] abbreviates: 0.5 μM analog, Day 6 of Treatment.

Regarding `CCCCCCCCCCCCCC1CC(=O)NCCCNCCCCNCCCN1` (stereo not drawn) [SL-11174], the IC50 was found to be 830 nM with DuPro, 2200 nM in the series with LnCap and 600 nM in the series on PC-3. Further, the “Analog level (uptake)” value stood at 2.788 nmoles/10^6 cells in the series on DuPro cells (setting [2]), 17.206 nmoles/10^6 cells with DuPro cells (setting [3]), 25.074 nmoles/10^6 cells in the series with DuPro cells (setting [4]) and 21.472 nmoles/10^6 cells in the series on DuPro cells (setting [5]). For the same compound, the “Spm (spermine) level” value in the series on DuPro cells (setting [2]) was found to be 0.002 nmoles/10^6 cells; in the series with DuPro cells (setting [3]), 0.001 nmoles/10^6 cells; in the series with DuPro cells (setting [4]) it was 0.001 nmoles/10^6 cells; in the series with DuPro cells (setting [5]), 0.0021 nmoles/10^6 cells.
Take `CCCCCCCCCCCCCC1CC(=O)NCCCNCCCNCCCN1` (stereo not drawn) [SL-11197]: the IC50 turned out to be 580 nM in the series on DuPro, 2600 nM in the series on LnCap and 500 nM in the series on PC-3. Further, the “Analog level (uptake)” value in the series with DuPro cells (setting [6]) came to 47.566 nmoles/10^6 cells; with DuPro cells (setting [7]), 35.913 nmoles/10^6 cells; with DuPro cells (setting [4]) it was 49.072 nmoles/10^6 cells; with DuPro cells (setting [5]), 42.341 nmoles/10^6 cells. Further, the “Spm (spermine) level” value with DuPro cells (setting [6]) was found to be 0.004 nmoles/10^6 cells; with DuPro cells (setting [7]), 0.002 nmoles/10^6 cells.
As to `CCCCCCCCCCCCCC1CC(=O)NCCCNCCCCCNCCCN1` (stereo not drawn) [SL-11199], the IC50 was 1200 nM in the series on DuPro, 1500 nM in the series with LnCap and 1400 nM in the series on PC-3. Moreover, the “Analog level (uptake)” value with DuPro cells (setting [6]) worked out at 26.959 nmoles/10^6 cells; with DuPro cells (setting [7]) it was 26.841 nmoles/10^6 cells; in the series with DuPro cells (setting [4]), 17.198 nmoles/10^6 cells; in the series on DuPro cells (setting [5]) it was 10.241 nmoles/10^6 cells. The “Spm (spermine) level” value in the series on DuPro cells (setting [6]) is 0.002 nmoles/10^6 cells; with DuPro cells (setting [7]), 0.003 nmoles/10^6 cells. Moreover, the “Spd (spermidine) level” value in the series on DuPro cells (setting [7]) was determined as 0.005 nmoles/10^6 cells.
Regarding `CCCCCCCCCCCCCC1CC(=O)NCCCNCCCNCCCNCCCN1` (stereo not drawn) [SL-11200], the IC50 turned out to be 1400 nM in the series on DuPro and 1300 nM in the series on PC-3. In addition, the “Analog level (uptake)” value amounted to 10.089 nmoles/10^6 cells with DuPro cells (setting [2]), 46.776 nmoles/10^6 cells in the series with DuPro cells (setting [3]), 5.989 nmoles/10^6 cells in the series with DuPro cells (setting [4]) and 49.309 nmoles/10^6 cells in the series with DuPro cells (setting [5]). For the same compound, the entries for the “Put (putrescine) level” value with DuPro cells (setting [2]), in the series on DuPro cells (setting [4]) and in the series with DuPro cells (setting [5]) were 0.004 nmoles/10^6 cells, 0.020 nmoles/10^6 cells and 0.011 nmoles/10^6 cells, respectively. Further, the “Spd (spermidine) level” value amounted to 0.029 nmoles/10^6 cells in the series with DuPro cells (setting [2]), 0.014 nmoles/10^6 cells with DuPro cells (setting [3]), 0.027 nmoles/10^6 cells with DuPro cells (setting [4]) and 0.018 nmoles/10^6 cells with DuPro cells (setting [5]). The “Spm (spermine) level” value in the series on DuPro cells (setting [2]) is 0.089 nmoles/10^6 cells; with DuPro cells (setting [3]), 0.043 nmoles/10^6 cells; with DuPro cells (setting [4]), 0.095 nmoles/10^6 cells; in the series on DuPro cells (setting [5]) it was 0.053 nmoles/10^6 cells.
On to `NCCCNCCCCNCCCN` [spermine], for which the “hydrolysis of ATP” value in series [1] was “lack of ATP hydrolysis”.
